Data taken from patent publication US6455589B1, “Primary N-hydroxylamines” (The Regents of the University of California, priority 1999, dated 2002).
Where two headings read alike, the source gives them in different places.

How the values were obtained:
[1] = assay type: in vivo; settings: 560 mg/kg single i.p. dose
Procedure: An important advantage of the subject hydroxylamines as compared to PBN, is its markedly diminished toxicity. Acute lethality in C57BL/6L mice is determined based upon varying sizes of single i.p. doses of hydoxylamine. […] The hydroxlamines show no toxicity at doses nearly twenty times as great.

[2] = in vivo; cited from earlier work
IMR90 cells [3] = test: Replicative life span of IMR90 cells (gain in PDLs, delay of senescence); assay type: cell-based, human; settings: for Gain in PDLs: continuous cultivation, compared to control untreated cells
Procedure: Cultivating IMR90 cells in culture—Normal human […] fibroblasts (IMR90) cells were obtained from the Coriell Institute for Medical Research at a population doubling level (PDL) of 10.85. The PDLs were calculated as log2(D/Do), where D and Do are defined as the density of cells at the time of harvesting and seeding, respectively. Stock cultures were grown in 100 mm Corning tissue culture dishes containing 10 ml of Dulbecco's modified Eagle's medium (DMEM) supplemented with 10% (V/V) fetal bovine serum (Hyclone). Stock cultures were split once a week when near confluence. Cells were harvested by trypsinization for 5 min at 37° C., immediately collected in 5 ml complete DMEM, washed once with 5 ml complete DMEM and incubated for 10-15 min at 37° C. to allow the cells to recover.
To test the effect of hydroxylamines on replicative life span, IMR90 cells were seeded at 0.5×106 per 100 mm dish. N-hydroxylamines (N-t-butyl hydroxylamine, N-benzyl hydroxylamine, N-methyl hydroxyl- amine) were added either individually (final concentration 10 or 100 μM) or in a combination of all three N-hydroxylamines (30 μM each). The cultures were split after 7 days and seeded with fresh medium supplemented with the hydroxylamines described above. In other experiments the medium of the cultures was replaced after 3 days of seeding with fresh medium and with fresh N-hydroxylamines, the split was done as usual after 7 days from seeding. The effect of PBN on life span was tested as in (5).

[4] = Depression in body temperature; assay type: in vivo, mice and gerbils; settings: 500 mg/kg
Procedure: Another undesirable systemic effect which has been observed in vivo with nitrone radical traps is a depression in body temperature. This toxicity can have serious health consequences and also can complicate diagnosis of other conditions. The subject hydroxylamines are administered to mice and gerbils at levels as high as 1000 mg/kg with no measurable temperature decrease. In contrast, PBN gives up to an 8° C. decrease in body temperature at a does of only 500 mg/kg.

[5] = rat, in vivo; cited from earlier work
[6] = 8-arm maze test 24 hours following 5 min ischemia; assay type: in vivo; settings: 24 hours post 5 min ischemia, young adult gerbils
Procedure: In this experiment, young adult (3-4 months of age) gerbils are tested to determine their ability to perform an 8-arm maze test 24 hours following an ischemic event as described above As compared to nonischemic animals, when untreated they committed many more errors. PBN and subject hydroxyamines are administered to some of the test animals. Gerbils treated with high doses of the hydroxylamines have error levels indistinguishable from those of nonischemic animals.

[7] = Lethality protection in aged gerbils from 10 min ischemia; assay type: in vivo; settings: given 30 min before 10 min ischemia
Procedure: In this study, subject hydroxylamines and PBN are compared for their ability to impart lethality protection (% survived) in aged gerbils (18-24 months of age, n=12/group) from 10 min ischemia when given 30 min before ischemia.

[8] = Infarct volume following an ischemic event (Example 18); assay type: in vivo
Excerpt: The Ability of the Subject Hydroxylamines to Reduce Infarct Volume Following an Ischemic Event While PBN and the hydroxylamines are both effective at low doses, at high doses hydroxylamines gave the best protection and PBN was toxic.

[9] = gerbils; cited from earlier work
IMR90 cells [10] = settings: literature (5); cited from earlier work
[11] = rats; cited from earlier work
[12] = test system: mitochondrial preparations of cerebral cortex; settings: relatively high concentrations; cited from earlier work
in vivo = test: in vivo
Procedure: C57BL/6J and DBA/2J male mice (35-40 g) are tested for the acute lethal effects of adriamycin and the prevention of acute lethality by pretreatment doses of subject hydroxylamines. Mice are injected i.p with either saline or subject hydroxylamines 30 minutes prior to administration of adriamycin.

creatine kinase (CK) = test: Protection of creatine kinase against the effects of βAP fragments; assay type: biochemical
Excerpt: (§1) While the hydroxylamines and PBN each show the ability to protect GS and CK against the effects of βAP fragments, the hydroxyamines give complete protection and in fact can at least partly reverse the effects of oxidation. In contrast, PBN's effectiveness is quite limited as it asymptotically levels out at a substantially incomplete level of protection.

[13] = cited from earlier work
[14] = Neuron loss following brain ischemia and reperfusion injury (Examples 14-16); set-up: species or system gerbils; settings: in vivo
Procedure: The test procedure is that reported by W. Cao, J. M. Carney, A. Duchon, R. A. Floyd and M. Chevion as “Oxygen free radical involvement in ischemia and reperfusion injury to brain, Neuroscience Letters, 88 (1988), 233. In the experiments a test compound is administered to groups of six gerbils i.p. as a single dose 30 min before 5 min bilateral carotid occlusion. The density of neuronal nuclei in a 100 micron is measured. Two controls are present—controls which receive no test compound and controls which receive no test compound and no brain ischemia. The compounds of the invention show advantages as compared to the prior art compounds.
The general method described above is used but the test compounds are administered i.p. as a single dose 30 min after reperfusion following 5 min ischemia.
Comparing the Subject Hydroxylamines With PBN to Determine the Relative Effectiveness for Protection of Neuronal Loss when Administered i.v. 60 min after Reperfusion Onset Following 5 min Ischemia in Gerbils Using the General Test Method Described Above

[15] = test system: glutamine synthetase (GS); test: Protection of glutamine synthetase against the effects of βAP fragments; assay type: biochemical
Excerpt: as §1

[16] = 300 mg/kg, in combination with adriamycin

Question: What does the source list for `CC(C)(C)[N+]([O-])=Cc1ccccc1` [PBN, α-Phenyl-N-t-butyl nitrone]?
Answer: Acute toxicity [1]: significant toxicity; Age-related oxidative changes in the brains of old gerbils [2]: reverses; Delay of senescence of IMR90 cells (in words) (IMR90 cells [3]): old solutions were more effective than fresh solutions; Gain in PDLs (IMR90 cells [3]; 200 μM): 2.4 PDLs; Gain in PDLs (IMR90 cells [3]; 800 μM): 14.8 PDLs; Concentration required to achieve nearly a similar gain in PDLs, relative to N-hydroxylamines (IMR90 cells [3]; PBN 800 μM vs N-hydroxylamines 100 μM): 8 times higher; Decrease in body temperature [4]: ≤ 8 °C; Mitochondrial decay in the liver of old rats [5]: reverses mitochondrial decay; Errors in 8-arm maze test [6]: less effective; Lethality protection (% survived) [7]: only partially effective; Reduction of infarct volume / toxicity ([8]; high doses): toxic; Reduction of infarct volume ([8]; low doses): effective; Effect after oxidative damage from ischemia/reperfusion injury [9]: neuroprotective effect; Delay of senescence in IMR90 (IMR90 cells [10]): delays senescence; Effect after oxidative damage from ischemia/reperfusion injury [11]: neuroprotective effect; Production of hydrogen peroxide [12]: reduces; Sedation (in vivo; 100 mg/kg, in combination with adriamycin): slight sedation; Combined toxicity (lethality) (in vivo; [16]): 10-20%; Sedation (in vivo; [16]): marked sedation; Shift in the adriamycin dose-effect curve (in vivo; pretreatment): slight shift to the right; Protection of CK against the effects of βAP fragments (creatine kinase (CK)): quite limited; Senescence ([13]; normal mice): delays senescence; Senescence ([13]; senescence-accelerated mice): delays senescence; Neuronal density in control gerbils without brain injury [14]: Neither PBN nor the subject hydroxylamines have an effect; Protection of GS against the effects of βAP fragments [15]: quite limited
